How the values were obtained:
[1] = In vitro free radical inhibition test (DPPH method); conditions: 8 μL of 20 mmol/L compound in 1 mL DPPH 0.059 mg/mL ethanol, 60 min dark, 517 nm; for inhibition rate %: DPPH; for Relative inhibition ability on free radicals: inhibition rate of AGI1067 on DPPH defined as 100
Text: 1. In Vitro Free Radical Inhibition Test (DPPH Method)
The single electron of DPPH radical has a strong absorption at […], and its alcohol solution is purple. In the presence of a free radical scavenger, the absorption of DPPH radical is weakened or disappeared for the reason that the free radical scavenger is paired with the single electron of DPPH radical, and the degree of discoloration is quantitatively related to the number of electrons DPPH radical receives. Therefore, a spectrophotometer can be used to quickly and quantitatively analyze the free radical scavenging rate of the compound.
1) 1 mL solution of DPPH in absolute ethanol (concentration: 0.059 mg/mL) was taken; 2) 8 μL of the compound to be tested (20 mmol/L) were added; 3) after mixing well, the resultant was kept in dark at room temperature for 60 minutes, 4) the absorbance of the sample at 517 nm was measured.

[2] = tested on: Malondialdehyde (MDA) in serum; assay: In vivo anti-lipid oxidation experiment (serum MDA, TBA method); parameters: inhibition rate %: concentration or dose not given beside the values; conditions: MAD lipid peroxidation in vivo; for inhibition rate %: relative to solvent DMSO and Chow averages; for avarage value of OD: serum, TBA method, 532 nm
Text: Experimental principle: Malondialdehyde (MDA) in liposome degradation products could condense with thiobarbituric acid (TBA) to form a red product which has a maximum absorption peak at 532 nm. The spectrophotometer was used to measure the relative absorption value to calculate the antioxidant value.
Reagents: Malondialdehyde (MDA) test kit (article number: A003-1, […], Nanjing Jiancheng), glacial acetic acid of analytically pure grade.
Reagent preparations: 1) Reagent I: Reagent 1 in the kit was taken out from the refrigerator and subjected to natural warming until a transparent liquid is obtained; 2) Reagent II: 170 mL of double-distilled water was added to each bottle and mixed; 3) Reagent III: A dry powder in the kit was dissolved in 60 mL of double-distilled water at 90 to 100° C. After the dry powder was dissolved totally, 30 mL of glacial acetic acid was added and kept in dark place; 4) Standard: 10 nmol/mL tetraethoxypropane.
Experimental procedures: 1) Blank tube: To 2 mL centrifuge tube were added anhydrous ethanol (70 μl), Reagent I (70 μl), Reagent II (0.8 mL) and Reagent III (0.8 mL) in sequence; 2) Standard tube: To 2 mL centrifuge tube were added standard (70 μl), Reagent I (70 μl), Reagent 11 (0.8 mL) and Reagent III (0.8 mL) in sequence; 3) Measuring tube: To 2 mL centrifuge tube were added the serum to be tested and physiological saline (the total volume of serum and physiological saline is 70 μl), Reagent I (70 μl), Reagent II (0.8 mL) and Reagent III (0.8 mL) in sequence; 4) Control tubes: all samples are set up with corresponding control tubes. To a 2 mL centrifuge tube were added the serum to be tested and physiological saline (the total volume of serum and physiological saline is 70 μl), Reagent I (70 μl), Reagent II (0.8 mL) and 50% glacial acetic acid (0.8 mL) in sequence.
After the above reagents were added, the mixture was mixed homogenously. Then the mixture was left in the water bath at 95° C. for 60 minutes. The sample was centrifuged at 4000 rpm for 10 minutes. The supernatant was taken for the measurement of the OD value.
Experimental data processing: the MDA content in serum was calculated as follows: MDA=(OD valuemeasured−OD valuecontrol)/OD valuestandard*concentration of the standard Inhibition rate %=100−(ODsample-average value−average value of Chow)/(average value of the solvent DMSO−average value of Chow)*100

[3] = tested on: golden hamsters (60% high-fat food, STZ induced); assay: Golden hamster disease model, animal model induction group (16-week-old group): blood biochemical indexes and body weight; assay type: in vivo
Description: Animals and feed: 1) 8-week-old male golden hamsters with a body weight range of 100±5 g were selected; 2) 60% high-fat food; 3) 30% high-fat food; 4) general feed: NRC standard feed, containing 5% fat, total calories 4200 kcal/kg.
Animal model induction group (16-week-old group): 1) fed with 60% high-fat food for 2 weeks under standard environment; 2) STZ intraperitoneal injection twice every two days, 50 mg/kg each time; 3) After STZ induction, the golden hamsters were continuous fed for 1 week; 4) Blood was taken from the ocular venous plexus, and the initial body weight, blood glucose, total cholesterol, LDL-c, HDL-c and triglyceride were measured, and the golden hamsters were grouped in parallel according to animal biochemical indicators, 8 in each group; 5) Gavage of compounds: 0.1 mL of solution of compound (concentration: 6.8 mg/mL, DMSO solution) and 0.25 mL of whole milk were mixed evenly and administrated by gavage once a day for 2 weeks; 6) Blank control: 0.1 mL of DMSO and 0.25 mL of whole milk were mixed evenly and administrated by gavage once a day for 2 weeks; 7) Observation time: 14 days later, blood was taken from the ocular venous plexus, and the body weight, blood glucose, total cholesterol, LDL-c, HDL-c and triglyceride were measured.
Instruments: Shimadzu UV-1750 spectrophotometer, clinical determination kit (Changchun Huili Biotechnology Co., Ltd.)
Determination of blood glucose: glucose oxidase method, kit
Determination of total cholesterol (COD-PAP method), kit
Determination of low density lipoprotein cholesterol (direct method), kit
Determination of triglyceride (GP-PAP method)
Determination of high density lipoprotein (direct method), kit

[4] = after gavage once a day for 2 weeks
[5] = change rate, gavage once a day for 2 weeks

Structure (SMILES) | inhibition rate % [1] | Relative inhibition ability on free radicals [1] | inhibition rate % [2] | avarage value of OD [2] | also measured
CC(C)(C)c1cc(SSc2cc(C(C)(C)C)c(O)c(C(C)(C)CCO)c2)cc(C(C)(C)C)c1O [Compound 6, 2,6-di-tert-butyl-4-((3-(tert-butyl)-4-hydroxy-5-(4-hydroxy-2-methylbutan-2-yl)phenyl)disulfanediyl)phenol] | 53.2% | 95.2 | 71.2% | 6.54 | 
COC(=O)CSC(C)(C)Sc1cc(C(C)(C)C)c(O)c(C(C)(C)C)c1 [Compound 1, methyl 2-((2-((3,5-di-tert-butyl-4-hydroxyphenyl)thio)propan-2-yl)thio)acetate] |  |  | 54.1% | 7.20 | 
CC(C)(Sc1cc(C(C)(C)C)c(O)c(C(C)(C)C)c1)Sc1cc(C(C)(C)C)c(O)c(C(C)(C)CCNS(=O)(=O)C2CC2)c1 [Compound 25, N-(3-(3-(tert-butyl)-5-((2-((3,5-di-tert-butyl-4-hydroxyphenyl)thio)propan-2-yl)thio)-2-hydroxyphenyl)-3-methylbutyl)cyclopropanesulfonamide] | 28.6% | 29.3 | 48.1% | 7.43 | 
CC(C)(Sc1cc(C(C)(C)C)c(O)c(C(C)(C)C)c1)Sc1cc(C(C)(C)C)c(O)c(C(C)(C)CCOC(=O)CCC(=O)NCCS(=O)(=O)O)c1 [Compound 27, 2-(4-(3-(3-(tert-butyl)-5-((2-((3,5-di-tert-butyl-4-hydroxyphenyl)thio)propan-2-yl)thio)-2-hydroxyphenyl)-3-methylbutoxy)-4-oxobutanamido)ethane-1-sulfonic acid] | 18.1% | 41.5 | 30.2% | 8.12 | 
CC(C)(SCC(=O)O)Sc1cc(C(C)(C)C)c(O)c(C(C)(C)C)c1 [Compound 2, 2-((2-((3,5-di-tert-butyl-4-hydroxyphenyl)thio)propan-2-yl)thio)acetic acid] | 27.1% | 62.1 | 73.5% | 6.45 | 
CC(C)(Sc1cc(C(C)(C)C)c(O)c(C(C)(C)CCO)c1)Sc1cc(C(C)(C)C)c(O)c(C(C)(C)CCO)c1 [Compound 9, 4,4′-(propane-2,2-diylbis(thio))bis(2-(tert-butyl)-6-(4-hydroxy-2-methylbutan-2-yl)phenol)] | 55.1% | 126.3 | 62.9% | 6.86 | 
CC(C)(Sc1cc(C(C)(C)C)c(O)c(C(C)(C)C)c1)Sc1cc(C(C)(C)C)c(O)c(C(C)(C)C)c1 [Compound 30, probucol, reference compound] |  |  | 53.3% | 7.23 | change rate of blood glucose % ([3]; 0.1 mL of 6.8 mg/mL DMSO solution + 0.25 mL whole milk by gavage once a day for 2 weeks): −1.5%; change rate of body weight after deduction of DMSO blank % ([3]; DMSO blank deducted): −4.1%; average body weight after administration/g [3, 4]: 141.3 g; change of body weight/g [3, 4]: 7.6 g; change rate of body weight % [3, 4]: 5.7%; HDL % [3, 5]: 63.3%; LDL % [3, 5]: −12.2%; total cholesterol % [3, 5]: 8.7%; triglyceride % [3, 5]: −6.5%
CCOC(=O)CCSC(C)(C)Sc1cc(C(C)(C)C)c(O)c(C(C)(C)C)c1 [Compound 3, ethyl 3-((2-((3,5-di-tert-butyl-4-hydroxyphenyl)thio)propan-2-yl)thio)propionate] | 43.7% | 100.2 | 34.9% | 7.94 | 
CC(C)(Sc1cc(C(C)(C)C)c(O)c(C(C)(C)C)c1)Sc1cc(C(C)(C)C)c(OC(=O)CCC(=O)O)c(C(C)(C)C)c1 [Compound 31, 4-(2,6-di-tert-butyl-4-((2-((3,5-di-tert-butyl-4-hydroxyphenyl)thio)propan-2-yl)thio)phenoxy)-4-oxobutanoic acid, reference compound] | 43.6% | 100.0 | 49.1% | 7.39 | 
CCN(CC)CCOCCC(C)(C)c1cc(SC(C)(C)Sc2cc(C(C)(C)C)c(O)c(C(C)(C)C)c2)cc(C(C)(C)C)c1O [Compound 17, 2,6-di-tert-butyl-4-((2-((3-(tert-butyl)-5-(4-(2-(diethylamino)ethoxy)-2-methylbutan-2-yl)-4-hydroxyphenyl)thio)propan-2-yl)thio)phenol] | 27.8% | 63.7 | 74.0% | 6.43 | 
CC(C)(Sc1cc(C(C)(C)C)c(O)c(C(C)(C)C)c1)Sc1cc(C(C)(C)C)c(O)c(C(C)(C)CCOC(=O)CN)c1 [Compound 19, 3-(3-(tert-butyl)-5-((2-((3,5-di-tert-butyl-4-hydroxyphenyl)thio)propan-2-yl)thio)-2-hydroxyphenyl)-3-methylbutyl glycinate] | 32.1% | 42.6 | 27.9% | 8.21 | 
CC(=O)OCCC(C)(C)c1cc(SC(C)(C)Sc2cc(C(C)(C)C)c(O)c(C(C)(C)C)c2)cc(C(C)(C)C)c1O [Compound 14, 3-(3-(tert-butyl)-5-((2-((3,5-di-tert-butyl-4-hydroxyphenyl)thio)propan-2-yl)thio)-2-hydroxyphenyl)-3-methylbutyl acetate] | 37.3% | 85.5 | 55.9% | 7.13 | 
COc1cc(SC(C)(C)Sc2ccc(O)c(OC)c2)ccc1O [Compound 7, 4,4′-(propane-2,2-diylbis(thio))bis(2-methoxyphenol)] | 73.9% | 169.4 | 47.6% | 7.45 | 
COC(=O)CN(CCC(C)(C)c1cc(SC(C)(C)Sc2cc(C(C)(C)C)c(O)c(C(C)(C)C)c2)cc(C(C)(C)C)c1O)CC(=O)OC [Compound 22, dimethyl 2,2′-((3-(3-(tert-butyl)-5-((2-((3,5-di-tert-butyl-4-hydroxyphenyl)thio)propan-2-yl)thio)-2-hydroxyphenyl)-3-methylbutyl)azanediyl)diacetate] | 42.6% | 97.6 | 36.2% | 7.89 | 
